Reference: patent US6737383B1, “Herbicidal oxadiazolidines” (priority 1999, dated 2004)

Legend:
bedstraw = assay: Test B pre/postemergence bedstraw; type: in vivo, Galium aparine
Procedure, shortened: (§1)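 Herbicidal effect was estimated by eye on a ten-point control scale after plants spent twelve to sixteen days in a greenhouse following soil or foliar treatment. Foliar sprays targeted plants at one to four leaves; all doses were formulated in a non-phytotoxic solvent with surfactant.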

blackgrass = assay: Test B pre/postemergence blackgrass; type: in vivo, Alopecurus myosuroides
Procedure, shortened: as §1

surinam grass = assay: Test B pre/postemergence surinam grass; type: in vivo, Brachiaria decumbens
Procedure, shortened: as §1

cocklebur = assay: Test B pre/postemergence cocklebur; type: in vivo, Xanthium strumarium
Procedure, shortened: as §1

corn = assay: Test B pre/postemergence corn; type: in vivo, Zea mays
Procedure, shortened: as §1

giant foxtail = assay: Test B pre/postemergence giant foxtail; type: in vivo, Setaria faberii
Procedure, shortened: as §1

morningglory = assay: Test B pre/postemergence morningglory; type: in vivo, Ipomoea hederacea
Procedure, shortened: as §1

pigweed = assay: Test B pre/postemergence pigweed; type: in vivo, Amaranthus retroflexus
Procedure, shortened: as §1

rape = assay: Test B pre/postemergence rape; type: in vivo, Brassica napus
Procedure, shortened: as §1

soybean = assay: Test B pre/postemergence soybean; type: in vivo, Glycine max
Procedure, shortened: as §1

sugar beet = assay: Test B pre/postemergence sugar beet; type: in vivo, Beta vulgaris
Procedure, shortened: as §1

velvetleaf = assay: Test B pre/postemergence velvetleaf; type: in vivo, Abutilon theophrasti
Procedure, shortened: as §1

wheat = assay: Test B pre/postemergence wheat; type: in vivo, Triticum aestivum
Procedure, shortened: as §1

wild oat = assay: Test B pre/postemergence wild oat; type: in vivo, Avena fatua
Procedure, shortened: as §1

rice = assay: Test B flood test rice; type: in vivo, Oryza sativa
Procedure, shortened: (§2)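 Plants were grown to the 2-leaf stage before treatment with test chemical, then held in a greenhouse for twelve to sixteen days. Injury was visually rated against untreated controls on a 0–10 scale, where 0 is no effect and 10 is complete control.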

smallflower flatsedge = assay: Test B flood test smallflower flatsedge; type: in vivo, Cyperus difformis
Procedure, shortened: as §2

[1] = Preemergence, Rate 62 g/ha, scale of 0 to 10 where 0 is no effect and 10 is complete control
[2] = Preemergence, Rate 125 g/ha, 0 is no effect, 10 is complete control
[3] = Preemergence, Rate 250 g/ha, scale 0 to 10, 0 is no effect, 10 is complete control
[4] = Preemergence, Rate 500 g/ha, scale 0 to 10 (0 no effect, 10 complete control)
[5] = Rate 62 g/ha, Postemergence, scale of 0 to 10 where 0 is no effect and 10 is complete control
[6] = Rate 125 g/ha, Postemergence, scale 0 to 10
[7] = Rate 500 g/ha, Postemergence, scale 0 to 10
[8] = Rate 62 g/ha, headed Pre-emergence (flood test species), scale 0 to 10 (0 no effect, 10 complete control)
[9] = Rate 125 g/ha, Pre-emergence, flood test species, scale 0 to 10 where 0 is no effect and 10 is complete control
[10] = Rate 250 g/ha, Pre-emergence, flood-test species, scale 0 to 10, 0 is no effect, 10 is complete control

COc1nc(OC)nc(N(C(=O)n2oc(=O)n(C(C)C)c2=O)C(C)C)n1 [Compound 182]
0: Bedstraw plant response rating (bedstraw; [1]) | Bedstraw plant response rating (0 to 10 scale) (bedstraw; [2]) | Bedstraw plant response rating (bedstraw; [3]) | Bedstraw plant response rating (bedstraw; [4]) | Bedstraw plant response rating (bedstraw; [5]) | Bedstraw plant response rating (bedstraw; [6]) | Plant response rating (0 to 10; 0 is no effect, 10 is complete control), Bedstraw (bedstraw; Rate 250 g/ha, Postemergence) | Bedstraw plant response rating (bedstraw; [7]) | Blackgrass plant response rating (blackgrass; [1]) | Blackgrass plant response rating (0 to 10 scale) (blackgrass; [2]) | Blackgrass plant response rating (blackgrass; [3]) | Blackgrass plant response rating (blackgrass; [4]) | Blackgrass plant response rating (blackgrass; [5]) | Blackgrass plant response rating (blackgrass; [6]) | Plant response rating (0 to 10; 0 is no effect, 10 is complete control), Blackgrass (blackgrass; Rate 250 g/ha, Postemergence) | Blackgrass plant response rating (blackgrass; [7]) | B. signalgrass plant response rating (surinam grass; [1]) | B. signalgrass plant response rating (0 to 10 scale) (surinam grass; [2]) | B. signalgrass plant response rating (surinam grass; [3]) | B. signalgrass plant response rating (surinam grass; [4]) | B. signalgrass plant response rating (surinam grass; [5]) | B. signalgrass plant response rating (surinam grass; Rate 125 g/ha, Postemergence, scale 0 (no effect) to 10 (complete control)) | Plant response rating, B. signalgrass (surinam grass; Rate 250 g/ha, Postemergence, scale 0 to 10, 0 is no effect, 10 is complete control) | B. signalgrass plant response rating (surinam grass; Rate 500 g/ha, Postemergence, scale 0 to 10, 0 no effect, 10 complete control) | Cocklebur plant response rating (cocklebur; [1]) | Cocklebur plant response rating (0 to 10 scale) (cocklebur; [2]) | Cocklebur plant response rating (cocklebur; [3]) | Cocklebur plant response rating (cocklebur; [4]) | Cocklebur plant response rating (cocklebur; [5]) | Cocklebur plant response rating (cocklebur; [6]) | Plant response rating (0 to 10; 0 is no effect, 10 is complete control), Cocklebur (cocklebur; Rate 250 g/ha, Postemergence) | Cocklebur plant response rating (cocklebur; [7]) | Corn plant response rating (corn; [1]) | Corn plant response rating (0 to 10 scale) (corn; [2]) | Corn plant response rating (corn; [3]) | Corn plant response rating (corn; [4]) | Corn plant response rating (corn; [5]) | Corn plant response rating (corn; [6]) | Plant response rating (0 to 10; 0 is no effect, 10 is complete control), Corn (corn; Rate 250 g/ha, Postemergence) | Corn plant response rating (corn; [7]) | Giant foxtail plant response rating (giant foxtail; [1]) | Giant foxtail plant response rating (0 to 10 scale) (giant foxtail; [2]) | Giant foxtail plant response rating (giant foxtail; [3]) | Giant foxtail plant response rating (giant foxtail; [4]) | Giant foxtail plant response rating (giant foxtail; [5]) | Giant foxtail plant response rating (giant foxtail; [6]) | Plant response rating (0 to 10; 0 is no effect, 10 is complete control), Giant foxtail (giant foxtail; Rate 250 g/ha, Postemergence) | Giant foxtail plant response rating (giant foxtail; [7]) | Morningglory plant response rating (morningglory; [1]) | Morningglory plant response rating (0 to 10 scale) (morningglory; [2]) | Morningglory plant response rating (morningglory; [3]) | Morningglory plant response rating (morningglory; [4]) | Morningglory plant response rating (morningglory; [5]) | Morningglory plant response rating (morningglory; [6]) | Plant response rating (0 to 10; 0 is no effect, 10 is complete control), Morningglory (morningglory; Rate 250 g/ha, Postemergence) | Morningglory plant response rating (morningglory; [7]) | Redroot pigweed plant response rating (pigweed; [1]) | Redroot pigweed plant response rating (0 to 10 scale) (pigweed; [2]) | Redroot pigweed plant response rating (pigweed; [3]) | Redroot pigweed plant response rating (pigweed; [4]) | Redroot pigweed plant response rating (pigweed; [5]) | Redroot pigweed plant response rating (pigweed; [6]) | Plant response rating (0 to 10; 0 is no effect, 10 is complete control), Redroot pigweed (pigweed; Rate 250 g/ha, Postemergence) | Redroot pigweed plant response rating (pigweed; [7]) | Rape plant response rating (rape; [1]) | Rape plant response rating (0 to 10 scale) (rape; [2]) | Rape plant response rating (rape; [3]) | Rape plant response rating (rape; [4]) | Rape plant response rating (rape; [5]) | Rape plant response rating (rape; [6]) | Plant response rating (0 to 10; 0 is no effect, 10 is complete control), Rape (rape; Rate 250 g/ha, Postemergence) | Rape plant response rating (rape; [7]) | Soybean plant response rating (soybean; [1]) | Soybean plant response rating (0 to 10 scale) (soybean; [2]) | Soybean plant response rating (soybean; [3]) | Soybean plant response rating (soybean; [4]) | Soybean plant response rating (soybean; [5]) | Soybean plant response rating (soybean; [6]) | Plant response rating (0 to 10; 0 is no effect, 10 is complete control), Soybean (soybean; Rate 250 g/ha, Postemergence) | Soybean plant response rating (soybean; [7]) | Sugarbeets plant response rating (sugar beet; [1]) | Sugarbeets plant response rating (0 to 10 scale) (sugar beet; [2]) | Sugarbeets plant response rating (sugar beet; [3]) | Sugarbeets plant response rating (sugar beet; [4]) | Sugarbeets plant response rating (sugar beet; [5]) | Sugarbeets plant response rating (sugar beet; [6]) | Plant response rating (0 to 10; 0 is no effect, 10 is complete control), Sugarbeets (sugar beet; Rate 250 g/ha, Postemergence) | Sugarbeets plant response rating (sugar beet; [7]) | Velvetleaf plant response rating (velvetleaf; [1]) | Velvetleaf plant response rating (velvetleaf; [3]) | Velvetleaf plant response rating (velvetleaf; [4]) | Velvetleaf plant response rating (velvetleaf; [6]) | Plant response rating (0 to 10; 0 is no effect, 10 is complete control), Velvetleaf (velvetleaf; Rate 250 g/ha, Postemergence) | Velvetleaf plant response rating (velvetleaf; [7]) | Wheat plant response rating (wheat; [1]) | Wheat plant response rating (wheat; [3]) | Wheat plant response rating (wheat; [4]) | Wheat plant response rating (wheat; [6]) | Plant response rating (0 to 10; 0 is no effect, 10 is complete control), Wheat (wheat; Rate 250 g/ha, Postemergence) | Wheat plant response rating (wheat; [7]) | Wild oats plant response rating (wild oat; [1]) | Wild oats plant response rating (wild oat; [3]) | Wild oats plant response rating (wild oat; [4]) | Wild oats plant response rating (wild oat; [6]) | Plant response rating (0 to 10; 0 is no effect, 10 is complete control), Wild oats (wild oat; Rate 250 g/ha, Postemergence) | Wild oats plant response rating (wild oat; [7]) | Rice plant response rating (rice; [8]) | Rice plant response rating (rice; [9]) | Rice plant response rating (rice; [10]) | Plant response rating, Rice (rice; Rate 500 g/ha, headed Pre-emergence (flood test species), scale 0 to 10 (0 no effect, 10 complete control)) | S. Flatsedge plant response rating (smallflower flatsedge; [8]) | S. Flatsedge plant response rating (smallflower flatsedge; [9]) | S. Flatsedge plant response rating (smallflower flatsedge; [10]) | S. Flatsedge plant response rating (smallflower flatsedge; Rate 500 g/ha, Pre-emergence, flood test species, scale 0 to 10 (0 no effect, 10 complete control))
